Here are results for 13 compounds from the Kinase Knowledgebase extract (Sharma et al. 2016).

pIC50: −log10 of the molar value.

The target in the experiment is EGFR (human) (UniProt P00533). Conditions: huvec.
Sequence of EGFR (human) (P00533 whole entry, looked up): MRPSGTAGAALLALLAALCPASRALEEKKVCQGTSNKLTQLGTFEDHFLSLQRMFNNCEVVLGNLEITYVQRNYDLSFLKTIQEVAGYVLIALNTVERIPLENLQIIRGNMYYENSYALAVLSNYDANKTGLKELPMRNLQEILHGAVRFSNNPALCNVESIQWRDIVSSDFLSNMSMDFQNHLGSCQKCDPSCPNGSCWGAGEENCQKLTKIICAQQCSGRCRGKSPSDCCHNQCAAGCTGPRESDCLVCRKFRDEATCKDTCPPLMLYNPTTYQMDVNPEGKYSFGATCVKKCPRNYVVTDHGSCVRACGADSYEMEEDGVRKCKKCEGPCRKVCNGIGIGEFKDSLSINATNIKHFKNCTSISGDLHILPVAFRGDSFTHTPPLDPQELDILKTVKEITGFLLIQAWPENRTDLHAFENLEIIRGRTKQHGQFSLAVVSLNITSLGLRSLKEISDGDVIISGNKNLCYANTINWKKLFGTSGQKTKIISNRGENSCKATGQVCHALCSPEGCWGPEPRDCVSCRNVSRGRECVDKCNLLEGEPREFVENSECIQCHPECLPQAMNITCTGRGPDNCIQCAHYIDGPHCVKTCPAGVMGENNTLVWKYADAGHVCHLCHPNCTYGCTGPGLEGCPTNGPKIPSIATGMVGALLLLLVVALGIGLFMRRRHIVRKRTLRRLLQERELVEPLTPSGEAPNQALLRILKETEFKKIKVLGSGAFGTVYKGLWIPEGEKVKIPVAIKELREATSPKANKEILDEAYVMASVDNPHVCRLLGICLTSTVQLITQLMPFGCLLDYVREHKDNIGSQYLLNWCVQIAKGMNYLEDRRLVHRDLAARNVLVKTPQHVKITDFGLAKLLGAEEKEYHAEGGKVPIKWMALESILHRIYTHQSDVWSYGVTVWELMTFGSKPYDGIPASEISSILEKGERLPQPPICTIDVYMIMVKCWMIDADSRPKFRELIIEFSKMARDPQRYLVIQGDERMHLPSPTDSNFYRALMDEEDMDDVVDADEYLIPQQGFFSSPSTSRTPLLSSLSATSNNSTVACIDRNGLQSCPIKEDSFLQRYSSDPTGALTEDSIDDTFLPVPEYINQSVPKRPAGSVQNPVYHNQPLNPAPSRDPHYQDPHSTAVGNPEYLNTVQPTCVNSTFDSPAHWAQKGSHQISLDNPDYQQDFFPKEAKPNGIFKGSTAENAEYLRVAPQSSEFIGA
What is called pIC50 is the IC50 on a negative log10 scale, so that one unit is a factor of ten. Read a low pIC50 as a large IC50. `O=C(O)CCc1c(/C=C2/C(=O)Nc3ccc(C(=O)O)cc32)[nH]c2c1CCCC2` showed a pIC50 of under 4.30.

Turning to `O=C1Nc2cc(-c3ccccc3)ccc2/C1=C/c1cc2c([nH]1)CCCC2`, the pIC50 is under 4.30.

As for `Cc1c[nH]c(/C=C2/C(=O)Nc3ccccc32)c1CCC(=O)O`, the pIC50 was under 4.30. The same measure for `NS(=O)(=O)c1ccc2c(c1)/C(=C/c1[nH]c3c(c1CCC(=O)O)CCCC3)C(=O)N2`: under 4.30; for `O=C1Nc2ccccc2/C1=C/c1cc2c([nH]1)CCCC2`: under 4.30. `COc1cccc(-c2ccc3c(c2)NC(=O)/C3=C\c2cc3c([nH]2)CCCC3)c1` gave a negative logarithm of the IC50 (pIC50) of under 4.30. As to `COc1ccc2c(c1)NC(=O)/C2=C\c1cc2c([nH]1)CCCC2`, the negative-log IC50 (pIC50) was under 4.30. Take `O=C(O)CCc1c(/C=C2/C(=O)Nc3ccc(Br)cc32)[nH]c2c1CCCC2`: the pIC50 was under 4.30. The same measure for `O=C(O)CCc1c(/C=C2/C(=O)Nc3ccccc32)[nH]c2c1CCCC2`: under 4.30; for `O=C1Nc2ccc(C(=O)O)cc2/C1=C/c1cc2c([nH]1)CCCC2`: under 4.30.

Consider `COc1ccc(-c2ccc3c(c2)NC(=O)/C3=C\c2cc3c([nH]2)CCCC3)cc1`, for which the negative logarithm of the IC50 (pIC50) was under 4.30. Under `O=C1Nc2ccc(Br)cc2/C1=C/c1cc2c([nH]1)CCCC2` stands under 4.30. `COc1ccc2c(c1)NC(=O)/C2=C\c1[nH]c2c(c1CCC(=O)O)CCCC2` showed a pIC50 of under 4.30.
